Source: ChEMBL document CHEMBL3046884, “Optical Resolution and Biological Activities of S-23121, a New Cereal Herbicide” (Agric Biol Chem, 1991)

Test system: Cucumis sativus
Experiment: Induction of membrane damage in Cucumis sativus (cucumber) cotyledon disks assessed as compound level causing […] ethane production incubated under white light for 24 hr at 20 degC
Type: functional

Structure (SMILES) | Activity [nM]
C#C[C@@H](C)Oc1cc(N2C(=O)C3=C(CCCC3)C2=O)c(F)cc1Cl | 178
C#C[C@H](C)Oc1cc(N2C(=O)C3=C(CCCC3)C2=O)c(F)cc1Cl [(S)-S-23121] | 21
